The supplement of paper PMC10307832

What was measured:
Assay in all cases: relative viability (nuclei count vs DMSO), 5 days (fraction); higher = more cells survive
BEN = system: BEN
Summary of the method: (§1)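 Lung cancer cell lines in 1536-well plates were dosed by pin tool the day after seeding, either with one drug alone or with a fixed anchor-drug dose plus five library-drug doses (not always all listed) in √10 steps. After 5 days, cells were fixed and their nuclei stained in one step (final 0.05% Triton X-100, 1% formaldehyde, 1 ug/ml Hoechst), then counted on 4× images. Relative viability is the nuclei count in treated wells divided by that in vehicle wells. Values are medians of duplicate plates.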

CAL-12T = system: CAL-12T
Summary of the method: as §1

COR-L23 = system: COR-L23
Summary of the method: as §1

HCC-44 = system: HCC-44
Summary of the method: as §1

LU99A = system: LU99A
Summary of the method: as §1

LXF-289 = system: LXF-289
Summary of the method: as §1

NCI-H1355 = system: NCI-H1355
Summary of the method: as §1

NCI-H1437 = system: NCI-H1437
Summary of the method: as §1

NCI-H1650 = system: NCI-H1650
Summary of the method: as §1

NCI-H1651 = system: NCI-H1651
Summary of the method: as §1

NCI-H1666 = system: NCI-H1666
Summary of the method: as §1

NCI-H1755 = system: NCI-H1755
Summary of the method: as §1

NCI-H1792 = system: NCI-H1792
Summary of the method: as §1

NCI-H1993 = system: NCI-H1993
Summary of the method: as §1

NCI-H2085 = system: NCI-H2085
Summary of the method: as §1

NCI-H2087 = system: NCI-H2087
Summary of the method: as §1

NCI-H2170 = system: NCI-H2170
Summary of the method: as §1

NCI-H460 = system: NCI-H460
Summary of the method: as §1

NCI-H520 = system: NCI-H520
Summary of the method: as §1

PC-14 = system: PC-14
Summary of the method: as §1

SK-MES-1 = system: SK-MES-1
Summary of the method: as §1

With `Cc1csc(=NC2CCCCC2)n1/N=C/c1ccc(O)c(O)c1O` [MIM1] + CC(=O)Nc1cccc(-n2c(=O)n(C3CC3)c(=O)c3c(Nc4ccc(I)cc4F)n(C)c(=O)c(C)c32)c1 [Trametinib] (partner 0.02 µM) the relative viability (BEN; first compound 0.2 µM) was 1.22, the relative viability (BEN; first compound 0.6325 µM) was 1.1 and the relative viability (BEN; first compound 2 µM) was 1.03. It also gave a relative viability (BEN; first compound 6.325 µM) of 1.1, a relative viability (BEN; first compound 20 µM) of 0.578 and a relative viability (CAL-12T; first compound 0.2 µM) of 0.406. The relative viability (CAL-12T; first compound 0.6325 µM) was 0.378, the relative viability (CAL-12T; first compound 2 µM) was 0.341 and the relative viability (CAL-12T; first compound 6.325 µM) was 0.316. It also gave a relative viability (CAL-12T; first compound 20 µM) of 0.249, a relative viability (COR-L23; first compound 0.2 µM) of 0.509 and a relative viability (COR-L23; first compound 0.6325 µM) of 0.619. The relative viability (COR-L23; first compound 2 µM) was 0.571, the relative viability (COR-L23; first compound 6.325 µM) was 0.388 and the relative viability (COR-L23; first compound 20 µM) was 0.306. For the same compound, the relative viability (HCC-44; first compound 0.2 µM) was 1.05, the relative viability (HCC-44; first compound 0.6325 µM) was 1.07 and the relative viability (HCC-44; first compound 2 µM) was 1.06. It also gave a relative viability (HCC-44; first compound 6.325 µM) of 1.13, a relative viability (HCC-44; first compound 20 µM) of 0.304 and a relative viability (LU99A; first compound 0.2 µM) of 0.571. It also gave a relative viability (LU99A; first compound 0.6325 µM) of 0.611, a relative viability (LU99A; first compound 2 µM) of 0.604 and a relative viability (LU99A; first compound 6.325 µM) of 0.469. For the same compound, the relative viability (LU99A; first compound 20 µM) was 0.164, the relative viability (LXF-289; first compound 0.2 µM) was 0.625 and the relative viability (LXF-289; first compound 0.6325 µM) was 0.664. For the same compound, the relative viability (LXF-289; first compound 2 µM) was 0.705, the relative viability (LXF-289; first compound 6.325 µM) was 0.607 and the relative viability (LXF-289; first compound 20 µM) was 0.221. The relative viability (NCI-H1355; first compound 0.2 µM) was 0.419, the relative viability (NCI-H1355; first compound 0.6325 µM) was 0.436 and the relative viability (NCI-H1355; first compound 2 µM) was 0.457. For the same compound, the relative viability (NCI-H1355; first compound 6.325 µM) was 0.384, the relative viability (NCI-H1355; first compound 20 µM) was 0.375 and the relative viability (NCI-H1437; first compound 0.2 µM) was 0.454. The relative viability (NCI-H1437; first compound 0.6325 µM) was 0.475, the relative viability (NCI-H1437; first compound 2 µM) was 0.456 and the relative viability (NCI-H1437; first compound 6.325 µM) was 0.239. It also gave a relative viability (NCI-H1437; first compound 20 µM) of 0.237, a relative viability (NCI-H1650; first compound 0.2 µM) of 0.697 and a relative viability (NCI-H1650; first compound 0.6325 µM) of 0.619. It also gave a relative viability (NCI-H1650; first compound 2 µM) of 0.424, a relative viability (NCI-H1650; first compound 6.325 µM) of 0.182 and a relative viability (NCI-H1650; first compound 20 µM) of 0.138. For the same compound, the relative viability (NCI-H1651; first compound 0.2 µM) was 0.856, the relative viability (NCI-H1651; first compound 0.6325 µM) was 0.9 and the relative viability (NCI-H1651; first compound 2 µM) was 0.866. The relative viability (NCI-H1651; first compound 6.325 µM) was 0.728, the relative viability (NCI-H1651; first compound 20 µM) was 0.843 and the relative viability (NCI-H1666; first compound 0.2 µM) was 0.929. It also gave a relative viability (NCI-H1666; first compound 0.6325 µM) of 0.833, a relative viability (NCI-H1666; first compound 2 µM) of 0.847 and a relative viability (NCI-H1666; first compound 6.325 µM) of 0.826. It also gave a relative viability (NCI-H1666; first compound 20 µM) of 0.426, a relative viability (NCI-H1755; first compound 0.2 µM) of 0.719 and a relative viability (NCI-H1755; first compound 0.6325 µM) of 0.778. The relative viability (NCI-H1755; first compound 2 µM) was 0.808, the relative viability (NCI-H1755; first compound 6.325 µM) was 0.7 and the relative viability (NCI-H1755; first compound 20 µM) was 0.382. The relative viability (NCI-H1792; first compound 0.2 µM) was 0.4, the relative viability (NCI-H1792; first compound 0.6325 µM) was 0.376 and the relative viability (NCI-H1792; first compound 2 µM) was 0.456. For the same compound, the relative viability (NCI-H1792; first compound 6.325 µM) was 0.384, the relative viability (NCI-H1792; first compound 20 µM) was 0.325 and the relative viability (NCI-H1993; first compound 0.2 µM) was 0.433. For the same compound, the relative viability (NCI-H1993; first compound 0.6325 µM) was 0.43, the relative viability (NCI-H1993; first compound 2 µM) was 0.511 and the relative viability (NCI-H1993; first compound 6.325 µM) was 0.448. The relative viability (NCI-H1993; first compound 20 µM) was 0.351, the relative viability (NCI-H2085; first compound 0.2 µM) was 0.619 and the relative viability (NCI-H2085; first compound 0.6325 µM) was 0.512. For the same compound, the relative viability (NCI-H2085; first compound 2 µM) was 0.62, the relative viability (NCI-H2085; first compound 6.325 µM) was 0.436 and the relative viability (NCI-H2085; first compound 20 µM) was 0.406. The relative viability (NCI-H2087; first compound 0.2 µM) was 0.293, the relative viability (NCI-H2087; first compound 0.6325 µM) was 0.227 and the relative viability (NCI-H2087; first compound 2 µM) was 0.197. The relative viability (NCI-H2087; first compound 6.325 µM) was 0.175, the relative viability (NCI-H2087; first compound 20 µM) was 0.202 and the relative viability (NCI-H2170; first compound 0.2 µM) was 0.859. It also gave a relative viability (NCI-H2170; first compound 0.6325 µM) of 1.01, a relative viability (NCI-H2170; first compound 2 µM) of 0.914 and a relative viability (NCI-H2170; first compound 6.325 µM) of 0.609. It also gave a relative viability (NCI-H2170; first compound 20 µM) of 0.368, a relative viability (NCI-H460; first compound 0.2 µM) of 0.103 and a relative viability (NCI-H460; first compound 0.6325 µM) of 0.136. It also gave a relative viability (NCI-H460; first compound 2 µM) of 0.118, a relative viability (NCI-H460; first compound 6.325 µM) of 0.0462 and a relative viability (NCI-H460; first compound 20 µM) of 0.0293. It also gave a relative viability (NCI-H520; first compound 0.2 µM) of 0.625, a relative viability (NCI-H520; first compound 0.6325 µM) of 0.707 and a relative viability (NCI-H520; first compound 2 µM) of 0.652. The relative viability (NCI-H520; first compound 6.325 µM) was 0.529, the relative viability (NCI-H520; first compound 20 µM) was 0.289 and the relative viability (PC-14; first compound 0.2 µM) was 0.663. For the same compound, the relative viability (PC-14; first compound 0.6325 µM) was 0.882, the relative viability (PC-14; first compound 2 µM) was 0.479 and the relative viability (PC-14; first compound 6.325 µM) was 0.621. The relative viability (PC-14; first compound 20 µM) was 0.17, the relative viability (SK-MES-1; first compound 0.2 µM) was 0.569 and the relative viability (SK-MES-1; first compound 0.6325 µM) was 0.601. The relative viability (SK-MES-1; first compound 2 µM) was 0.58, the relative viability (SK-MES-1; first compound 6.325 µM) was 0.518 and the relative viability (SK-MES-1; first compound 20 µM) was 0.514.
